Source: PubChem BioAssay AID2060613 (Molecular Pharmacology Branch, DTP, NCI, 2025)
Where “and” joins values, the source holds several entries; their conditions need not be identical. Equal values may be shown once.

Test system: 233499-124-R-J3-PDC complex spheroid viability
Assay: Anticancer human tumor 233499-124-R-J3-PDC patient-derived colon adenocarcinoma cell line growth inhibition [CLK]
Settings: for viability, T/C: stronger effect = lower value
Source text: A high-throughput screen of multi-cell type tumor spheroids was designed to identify active combinations of […] and targeted small molecules. Complex spheroids include a stromal component modeled by human endothelial cells (HUVEC) and fibroblasts modeled by human mesenchymal stem cells (MSCs). The concentration ranges selected for each drug and investigational agent were based upon clinically achievable concentrations if the clinical Cmax of the agent was known.
Compounds. The drugs and investigational agents: cirtuvivint (SM08502; NSC835563), CC-671 (NSC850746), vemurafenib (NSC761431), tapotoclax (NSC804041), sotorasib (NSC818433), adagrasib (NSC831453), MRTX-1133 (NSC836407), BAY2416964 (NSC825713), copanlisib (NSC816437), inavolisib (NSC800729), abemaciclib (NSC768073), osimertinib (NSC779217), entinostat (NSC756642), eltanexor (KPT-8602, NSC794443), venetoclax (NSC766270), ceralasertib (NSC777638), bortezomib (NSC756655), olaparib (NSC753686), talazoparib (NSC767125), alisertib (NSC759677), peposertib (NSC802822), gemcitabine (NSC613327), 5-fluorouracil (NSC19893), SN-38 (NSC673596), oxaliplatin (NSC266046), paclitaxel (NSC125973), and doxorubicin (NSC123127), were obtained from the National Cancer Institute (NCI) Developmental Therapeutics Program Chemical Repository. The FDA-approved anticancer drug set is available from the Developmental Therapeutics Program at https://dtp.cancer.gov/organization/dscb/obtaining/available plates.htm. […] The stock solutions were prepared in dimethyl sulfoxide (DMSO, Sigma-Aldrich, St. Louis, MO, cat. D2650), except for the platinum complexes which were prepared in saline (Quality Biological, Gaithersburg, MD, cat. 114-055-101), at 800-fold the tested concentration and stored at -70 degrees C prior to their use. All drugs and investigational agents were tested over a range starting from a high concentration at or near the clinical Cmax and decreasing in half-log increments. If the clinical Cmax for an agent had not been determined, the highest concentration tested was 10 microM.
Cell Culture. All cells were maintained in an incubator at 37 degrees C and 5% CO2 with 95% humidity. The PDC lines were cultured according to standard operating procedures established by the NCI PDMR. Briefly, all PDCs were thawed and cultured in Matrigel-coated flasks prepared with a working solution of 1X Ham's F-12 nutrient mix, without supplementation (Invitrogen, Waltham, MA, cat. 11765054), 100 U/mL penicillin-streptomycin (Invitrogen, cat. 15140122), and 2.5% Matrigel (Corning Inc., Corning, NY, cat. 354248) for the first three passages. The 947758-054-R-J2-PDC line was cultured in 6B/Colon 1A media, which includes advanced DMEM/F-12 (Thermo Fisher Scientific, cat. 12634028), 10 mM HEPES (Thermo Fisher Scientific, cat. 15630080), 1X GlutaMAX supplement (Thermo Fisher Scientific, cat. 35050061), 0.1 mg/mL primocin (InvivoGen, cat. ant-pm-2), 10% defined fetal bovine serum, heat inactivated (HyClone Laboratories Inc., cat. SH30070.03HI), 1.25 mM N-Acetyl-L-cysteine (Sigma-Aldrich, cat. A9165), 10 mM nicotinamide (Sigma-Aldrich, cat. N0636), 1X B-27 supplement (Thermo Fisher Scientific, cat. 17504044), 1X N-2 supplement (Thermo Fisher Scientific, cat. 17502048), and 10 microM Y-27632 dihydrochloride (Tocris Bioscience, cat. 1254). The 876862-298-R-J1-PDC was cultured in 6E media, which includes all 6B/Colon 1A media components plus 50% L-WRN conditioned media (ATCC, cat. CRL-3276), 50 ng/mL recombinant human EGF recombinant protein (hEGF; Thermo Fisher Scientific, cat. PHG0311), 10 ng/mL recombinant human fibroblast growth factor 10 (hGFG-10; PeproTech, cat. 100-26), 1 ng/mL recombinant human fibroblast growth factor 2 (hFGF-2; PeproTech, cat. 100-18B), and 1 µM prostaglandin E2 (PGE2; Tocris, cat. 2296). The 227483-062-R1-J1-PDC line was cultured in Panc media, containing all 6E components except hFGF-2, with the addition of 500 nM SB-431542 (Selleckchem, cat. S1067) and 10 nM gastrin (Tocris, cat. 3006). […]
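Also: spheroids exposed to the drug combinations for seven days.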
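For viability, T/C in this document: percent viability relative to DMSO vehicle control wells taken as 100%.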

Which results are given for `CC(C)CC(NC(=O)C(Cc1ccccc1)NC(=O)c1cnccn1)B(O)O` (stereo not drawn) + CN1CCN(c2cc(C(=O)Nc3cc4cc(-c5cnn(C)c5)ccc4cn3)ccn2)CC1?
IC50 (curve of first compound, second compound 0.0316 µM): 5.53 nM; IC50 (curve of first compound, second compound 0.1 µM): 5.01 nM; IC50 (curve of first compound, second compound 0.316 µM): 5.27 nM; IC50 (curve of first compound, second compound 1 µM): < 0.949 nM; IC50 (curve of first compound, second compound 3.16 µM): < 0.949 nM; IC50 (curve of first compound, second compound 10 µM): < 0.949 nM; viability, T/C (second compound 0.0316 µM, first compound 0.000949 µM): 97.8%; viability, T/C (second compound 0.0316 µM, first compound 0.003 µM): 113%; viability, T/C (second compound 0.0316 µM, first compound 0.00949 µM): 0.79%; viability, T/C (second compound 0.0316 µM, first compound 0.03 µM): 0.19%; viability, T/C (second compound 0.0316 µM, first compound 0.0949 µM): 0.17%; viability, T/C (second compound 0.0316 µM, first compound 0.3 µM): 0.17%; viability, T/C (second compound 0.1 µM, first compound 0.000949 µM): 86.1%; viability, T/C (second compound 0.1 µM, first compound 0.003 µM): 93.5%; viability, T/C (second compound 0.1 µM, first compound 0.00949 µM): 0.23%; viability, T/C (second compound 0.1 µM, first compound 0.03 µM): 0.2%; viability, T/C (second compound 0.1 µM, first compound 0.0949 µM): 0.18%; viability, T/C (second compound 0.1 µM, first compound 0.3 µM): 0.17%; viability, T/C (second compound 0.316 µM, first compound 0.000949 µM): 96.5%; viability, T/C (second compound 0.316 µM, first compound 0.003 µM): 99%; viability, T/C (second compound 0.316 µM, first compound 0.00949 µM): 0.2%; viability, T/C (second compound 0.316 µM, first compound 0.03 µM): 0.17%; viability, T/C (second compound 0.316 µM, first compound 0.0949 µM): 0.18%; viability, T/C (second compound 0.316 µM, first compound 0.3 µM): 0.17%; viability, T/C (second compound 1 µM, first compound 0.000949 µM): 1.6%; viability, T/C (second compound 1 µM, first compound 0.003 µM): 0.82%; viability, T/C (second compound 1 µM, first compound 0.00949 µM): 0.17%; viability, T/C (second compound 1 µM, first compound 0.03 µM): 0.15%; viability, T/C (second compound 1 µM, first compound 0.0949 µM): 0.54%; viability, T/C (second compound 1 µM, first compound 0.3 µM): 0.13%; viability, T/C (second compound 3.16 µM, first compound 0.000949 µM): 0.76%; viability, T/C (second compound 3.16 µM, first compound 0.003 µM): 0.84%; viability, T/C (second compound 3.16 µM, first compound 0.00949 µM): 0.17%; viability, T/C (second compound 3.16 µM, first compound 0.03 µM): 0.18%; viability, T/C (second compound 3.16 µM, first compound 0.0949 µM): 0.19%; viability, T/C (second compound 3.16 µM, first compound 0.3 µM): 0.33%; viability, T/C (second compound 10 µM, first compound 0.000949 µM): 0.45%; viability, T/C (second compound 10 µM, first compound 0.003 µM): 0.34%; viability, T/C (second compound 10 µM, first compound 0.00949 µM): 0.24%; viability, T/C (second compound 10 µM, first compound 0.03 µM): 0.24%; viability, T/C (second compound 10 µM, first compound 0.0949 µM): 0.22%; viability, T/C (second compound 10 µM, first compound 0.3 µM): 0.19%

What does the source list for `COC1C=CCC(C)C(C)S(=O)(=O)NC(=O)c2ccc3c(c2)N(CC2CCC21)CC1(CCCc2cc(Cl)ccc21)CO3` (stereo not drawn)?
viability, T/C (compound 0.0316 µM): 101% and 96.4%; viability, T/C (compound 0.1 µM): 86.9% and 97.1%; viability, T/C (compound 0.316 µM): 74% and 90.9%; viability, T/C (compound 1 µM): 80.4% and 83.1%; viability, T/C (compound 3.16 µM): 58.9% and 76%; viability, T/C (compound 10 µM): 5.33% and 8.83%; IC50 (curve of compound): 3630 nM and 4800 nM

What does the source list for `COc1cccc2c1C(=O)c1c(O)c3c(c(O)c1C2=O)CC(O)(C(=O)CO)CC3OC1CC(N)C(O)C(C)O1` (stereo not drawn)?
viability, T/C (compound 0.0316 µM): 92.5% and 101%; viability, T/C (compound 0.1 µM): 99% and 94.5%; viability, T/C (compound 0.316 µM): 81.5% and 67.5%; viability, T/C (compound 1 µM): 72.2% and 48.1%; viability, T/C (compound 3.16 µM): 45.6% and 21.7%; viability, T/C (compound 10 µM): 17.3% and 17.5%; IC50 (curve of compound): 2610 nM and 781 nM

What does the source list for `O=C(c1cc(Cc2n[nH]c(=O)c3ccccc23)ccc1F)N1CCN(C(=O)C2CC2)CC1`?
viability, T/C (compound 0.0316 µM): 89.8% and 102%; viability, T/C (compound 0.1 µM): 91.5% and 89.6%; viability, T/C (compound 0.316 µM): 104%; viability, T/C (compound 1 µM): 105% and 92.8%; viability, T/C (compound 3.16 µM): 107%; viability, T/C (compound 10 µM): 86% and 115%; IC50 (curve of compound): > 10000 nM
